Experimental data published in patent publication US20220202771A1, “Antidepressants for the Treatment or Prevention of Memory Loss and/or Cognitive Decline or Dysfunction in Aging” (UNIVERSITY OF NORTH TEXAS HEALTH SCIENCE CENTER AT FORT …, priority 2019, published 2022).
Where a name gives a salt, the structure may show the parent alone. Read-outs that look alike come from different tables or passages of the source.

Columns and labels:
[1] = test system: individuals with a diagnosis of MCI with DepE scores >=2
Protocol: (§1) Next, the inventors conducted an investigator-initiated clinical trial (NCT02590874). […] Treatment duration was 4 months of duloxetine versus placebo. The initial dosage consisted of 30 mg/day duloxetine or placebo; after two weeks, dosage was increased to 60 mg/day. Dosage during the last two weeks of the 4-month study was reduced to 30 mg/day. Secondary endpoints of change in Repeatable Battery for the Assessment of Neuropsychological Status (RBANS) memory scores from baseline to study completion were analyzed. In this study, the inventors recruited n=16 participants with clinical diagnosis of amnestic MCI (single or multi-domain).

[2] = test system: individuals with a diagnosis of MCI with DepE scores >=2; settings: 4 months duloxetine 30-60 mg/day, n=16 participants in the trial
Protocol: Treatment duration was 4 months of duloxetine versus placebo. The initial dosage consisted of 30 mg/day duloxetine or placebo; after two weeks, dosage was increased to 60 mg/day. Dosage during the last two weeks of the 4-month study was reduced to 30 mg/day. […] In this study, the inventors recruited n=16 participants with clinical diagnosis of amnestic MCI (single or multi-domain). N=14 subjects enrolled were of Mexican American ethnicity.

[3] = test system: individuals with a diagnosis of MCI with elevated DepE scores; settings: treatment group, follow-up after 4 months
Protocol: as §1
Fasting blood samples were collected at baseline and follow-up. Several plasma biomarkers were assessed to determine neurodegeneration over treatment duration: Neurofilament light (NfL)(FIG. 6), Tau (FIG. 5), Aβ40 (FIG. 4) and Aβ42 (FIG. 3).

[4] = Baseline, amnestic MCI participants, duloxetine group before treatment
[5] = Follow-up, 4 months treatment, 30 mg/day then 60 mg/day, last two weeks 30 mg/day, *p < .05

## CNCC[C@H](Oc1cccc2ccccc12)c1cccs1 [Duloxetine, N-methyl-γ-(1-naphthalenyloxy)-2-thiopropanamine hydrochloride]
[1]; [4]
  RBANS Delayed Memory: 76.63(11.01)
  RBANS Immediate Memory: 74.62(11.17)
  RBANS Total: 72.37(5.12)
[1]; [5]
  RBANS Delayed Memory: 91.50(6.98)*
  RBANS Immediate Memory: 88.75(11.43)*
  RBANS Total: 80.37(5.31)*
[1]; MCI patients elevated in the depressive endophenotype, summary statement of the clinical trial
  effect on memory abilities: significant benefit
[1]; treatment group, 4 months, no significant change in the placebo group (p<0.05), FIG. 2
  change in RBANS Delayed Memory scores over treatment duration: significant improvement
[2]
  Serious Adverse Effects (SAEs): no Serious Adverse Effects (SAEs) were identified
[3]; MCI cases with elevated DepE scores
  markers of neurodegeneration (NfL, Tau, Aβ40, Aβ42) at follow-up: primarily stable
[3]; placebo group showed significant increase, FIG. 3
  plasma Aβ42, baseline versus follow-up: no significant differences
[3]; placebo group showed significant increase, FIG. 4
  plasma Aβ40, baseline versus follow-up: no significant differences
